Results taken from patent publication US9522914B2, “Azole derivative” (TAISHO PHARMACEUTICAL CO., LTD, priority 2011, dated 2016).

Target: Human V1b receptor (Homo sapiens (Human), UniProt P47901)
Assay: Binding Test for V1b Receptor ([3H]AVP, crude membrane preparation of 293FT cells)
Conditions: inhibition of [3H]AVP binding (0.4 to 1 nmol/L), room temperature, 60 minutes
Outline: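 Crude membranes from 293FT cells transiently expressing human V1b, incubated with [3H]AVP (0.4 to 1 nmol/L) and compound (0.01 nmol/L–1 μmol/L final) in Tris pH 7.4 with MgCl2 and 0.1% BSA, 60 min at room temperature. Bound label collected by filtration. Nonspecific binding defined with unlabeled AVP; IC50 from dose-response curve.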

Human V1b receptor, sequence (P47901 whole entry): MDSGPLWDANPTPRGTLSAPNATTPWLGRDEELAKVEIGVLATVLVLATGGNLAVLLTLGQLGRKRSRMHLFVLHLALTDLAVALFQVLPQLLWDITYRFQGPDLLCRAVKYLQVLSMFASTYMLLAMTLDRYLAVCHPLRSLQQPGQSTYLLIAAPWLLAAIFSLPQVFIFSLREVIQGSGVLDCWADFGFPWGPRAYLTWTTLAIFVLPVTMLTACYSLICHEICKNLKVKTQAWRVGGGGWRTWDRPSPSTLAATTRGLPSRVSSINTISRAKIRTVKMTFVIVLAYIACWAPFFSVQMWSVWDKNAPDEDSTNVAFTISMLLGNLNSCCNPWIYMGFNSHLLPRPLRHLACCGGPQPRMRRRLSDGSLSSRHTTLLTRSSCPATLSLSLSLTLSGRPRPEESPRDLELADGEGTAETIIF

Row | SMILES | IC50 [nM]
1 | CC(C)NC(=O)Cn1cc(-c2ccc(CCN3CCOCC3)nc2)nc1-c1cccc(Cl)c1 [Example A-30, 2-[2-(3-chlorophenyl)-4-{6-[2-(morpholin-4-yl)ethyl]pyridin-3-yl}-1H-imidazol-1-yl]-N-(propan-2-yl)acetamide] | 21
2 | CC(C)NC(=O)Cn1nc(-c2ccc(CCN3C4CCC3COC4)cn2)nc1-c1ccc(F)c(Cl)c1 [Example B-08, 2-[5-(3-chloro-4-fluorophenyl)-3-{5-[2-(3-oxa-8-azabicyclo[3.2.1]oct-8-yl)ethyl]pyridin-2-yl}-1H-1,2,4-triazol-1-yl]-N-(propan-2-yl)acetamide] | 2.8
3 | COc1cc(-c2nc(-c3ccc(CCN4CCC(C)C4)cc3)cn2CC(=O)NC(C)C)ccc1F (stereo not shown) [Example A-21, 2-[2-(4-fluoro-3-methoxyphenyl)-4-{4-[2-(3-methylpyrrolidin-1-yl)ethyl]phenyl}-1H-imidazol-1-yl]-N-(propan-2-yl)acetamide] | 3.2
4 | CC(C)NC(=O)Cc1nc(-c2cccc(CCN3CCOCC3)c2)sc1-c1cccc(Cl)c1 [Example C-17, 2-[5-(3-chlorophenyl)-2-{3-[2-(morpholin-4-yl)ethyl]phenyl}-1,3-thiazol-4-yl]-N-(propan-2-yl)acetamide] | 100 to 1000
5 | COc1cc(-c2nc(-c3ccc(CCN4CC(C)OC(C)C4)cc3)cn2CC(=O)NC(C)C)ccc1F (stereo not shown) [Example A-20, 2-[4-{4-[2-(2,6-dimethylmorpholin-4-yl)ethyl]phenyl}-2-(4-fluoro-3-methoxyphenyl)-1H-imidazol-1-yl]-N-(propan-2-yl)acetamide] | 12
6 | COc1cc(-c2nc(-c3ccc(CCN4CCOCC4)cc3)cn2CC(=O)NC(C)C)ccc1F [Example A-10, 2-[2-(4-fluoro-3-methoxyphenyl)-4-{4-[2-(morpholin-4-yl)ethyl]phenyl}1H-imidazol-1-yl]-N-(propan-2-yl)acetamide] | 3.7
7 | CC(C)NC(=O)Cc1nn(-c2ccc(CC(C)N3C4CCC3COC4)cc2)c(=O)n1-c1ccc(F)c(Cl)c1 [Example D-36, 2-[4-(3-chloro-4-fluorophenyl)-1-{4-[2-(3-oxa-8-azabicyclo[3.2.1]oct-8-yl)propyl]phenyl}-5-oxo-4,5-dihydro-1H-1,2,4-triazol-3-yl]-N-(propan-2-yl)acetamide] | 0.61
8 | COc1cccc(-c2nc(-c3ccc(CCN4CCOCC4)cc3F)nn2CC(=O)NC(C)C)c1 [Example B-18, 2-[3-{2-fluoro-4-[2-(morpholin-4-yl)ethyl]phenyl}-5-(3-methoxyphenyl)-1H-1,2,4-triazol-1-yl]-N-(propan-2-yl)acetamide] | 7.2
9 | CC(C)NC(=O)Cc1nc(-c2ccc(CCN3CCCCC3)cc2)sc1-c1cccc(Cl)c1 [Example C-13, 2-[5-(3-chlorophenyl)-2-{4-[2-(piperidin-1-yl)ethyl]phenyl}-1,3-thiazol-4-yl]-N-(propan-2-yl)acetamide] | 16
10 | COc1cccc(-n2c(CC(=O)NC(C)C)nn(-c3ccc(CCN4C5CCC4COC5)c(OC)c3)c2=O)c1 [Example D-42, 2-[1-{3-methoxy-4-[2-(3-oxa-8-azabicyclo[3.2.1]oct-8-yl)ethyl]phenyl}-4-(3-methoxyphenyl)-5-oxo-4,5-dihydro-1H-1,2,4-triazol-3-yl]-N-(propan-2-yl)acetamide] | 7.9
11 | CC(C)(C)NC(=O)Cc1nn(-c2ccc(CCN3C4CCC3COC4)cc2)c(=O)n1-c1ccc(F)c(Cl)c1 [Example D-31, N-tert-butyl-2-[4-(3-chloro-4-fluorophenyl)-1-{4-[2-(3-oxa-8-azabicyclo[3.2.1]oct-8-yl)ethyl]phenyl}-5-oxo-4,5-dihydro-1H-1,2,4-triazol-3-yl]acetamide] | 2.9
12 | CC(C)NC(=O)Cn1cc(-c2ccc(OCCN3CCCCC3)cc2)nc1-c1cccc(Cl)c1 [Example A-33, 2-[2-(3-chlorophenyl)-4-{4-[2-(piperidin-1-yl)ethoxy]phenyl}-1H-imidazol-1-yl]-N-(propan-2-yl)acetamide] | 100 to 1000
13 | CC(C)NC(=O)CC1=C(c2cccc(Cl)c2)C(=O)N(c2ccc(CCN3CCOCC3)cc2)C1=O [Example C-18, 2-[4-(3-chlorophenyl)-1-{4-[2-(morpholin-4-yl)ethyl]phenyl}-2,5-dioxo-2,5-dihydro-1H-pyrrol-3-yl]-N-(propan-2-yl)acetamide] | 9
14 | CCC1COCCN1CCc1ccc(-c2nc(-c3cccc(OC)c3)n(CC(=O)NC(C)C)n2)cc1 (stereo not shown) [Example B-31, 2-[3-{4-[2-(3-ethylmorpholin-4-yl)ethyl]phenyl}-5-(3-methoxyphenyl)-1H-1,2,4-triazol-1-yl]-N-(propan-2-yl)acetamide] | 10 to 100

Further lines, results first:

Row | IC50 [nM] | SMILES
15 | 100 to 1000 | CC(C)NC(=O)Cc1nn(-c2ccc(CCN3CCC4CCCCC4C3)cc2)c(=O)n1-c1cccc(Cl)c1 [Example D-51, 2-[4-(3-chlorophenyl)-1-{4-[2-(octahydroisoquinolin-2(1H)-yl)ethyl]phenyl}-5-oxo-4,5-dihydro-1H-1,2,4-triazol-3-yl]-N-(propan-2-yl)acetamide]
16 | 10 to 100 | CC(C)NC(=O)Cc1nn(-c2ccc(CC(C)N3CCOCC3)cn2)c(=O)n1-c1cccc(Cl)c1 [Example D-19, 2-[4-(3-chlorophenyl)-1-{5-[2-(morpholin-4-yl)propyl]pyridin-2-yl}-5-oxo-4,5-dihydro-1H-1,2,4-triazol-3-yl]-N-(propan-2-yl)acetamide]
17 | 2.8 | CC(C)(C)NC(=O)Cc1nn(-c2ccc(CCN3CCOCC3)cc2)c(=O)n1-c1ccc(F)c(Cl)c1 [Example D-30, N-tert-butyl-2-[4-(3-chloro-4-fluorophenyl)-1-{4-[2-(morpholin-4-yl)ethyl]phenyl}-5-oxo-4,5-dihydro-1H-1,2,4-triazol-3-yl]acetamide]
18 | 100 to 1000 | CC(C)NC(=O)Cc1nn(-c2ccc(CCN3CCOCC3)cn2)c(=O)n1-c1cccc(Cl)c1 [Example D-04, 2-[4-(3-chlorophenyl)-1-{5-[2-(morpholin-4-yl)ethyl]pyridin-2-yl}-5-oxo-4,5-dihydro-1H-1,2,4-triazol-3-yl]-N-(propan-2-yl)acetamide]
19 | 10 to 100 | CC(C)(C)NC(=O)Cc1nn(-c2ccc(CCN3CCOCC3)cn2)c(=O)n1-c1cccc(Cl)c1 [Example D-15, N-tert-butyl-2-[4-(3-chlorophenyl)-1-{5-[2-(morpholin-4-yl)ethyl]pyridin-2-yl}-5-oxo-4,5-dihydro-1H-1,2,4-triazol-3-yl]acetamide]
20 | 100 to 1000 | CC(C)NC(=O)Cc1nn(-c2ccc(CCN3C(C)COCC3C)cc2)c(=O)n1-c1cccc(Cl)c1 [Example D-60, 2-[4-(3-chlorophenyl)-1-{4-[2-(3,5-dimethylmorpholin-4-yl)ethyl]phenyl}-5-oxo-4,5-dihydro-1H-1,2,4-triazol-3-yl]-N-(propan-2-yl)acetamide]
21 | 18 | CC(C)NC(=O)Cc1nn(-c2ccc(CCN3CCOCC3)cc2)c(=O)n1-c1cccc(C(F)(F)F)c1 [Example D-35, 2-(1-{4-[2-(morpholin-4-yl)ethyl]phenyl}-5-oxo-4-[3-(trifluoromethyl)phenyl]-4,5-dihydro-1H-1,2,4-triazol-3-yl)-N-(propan-2-yl)acetamide]
22 | 15 | CC(C)NC(=O)Cc1nn(-c2ccc(CCN3CCCC3)cc2)c(=O)n1-c1ccc(F)c(Cl)c1 [Example D-43, 2-[4-(3-chloro-4-fluorophenyl)-5-oxo-1-{4-[2-(pyrrolidin-1-yl)ethyl]phenyl}-4,5-dihydro-H-1,2,4-triazol-3-yl]-N-(propan-2-yl)acetamide]
